From the supplement of paper PMC10307832

Tests used:
Test in all cases: relative viability (nuclei count vs DMSO), 5 days (fraction); higher = more cells survive
Ruxolitinib + Olaparib = compound: N#CC[C@H](C1CCCC1)n1cc(-c2ncnc3[nH]ccc23)cn1 [Ruxolitinib] + O=C(c1cc(Cc2n[nH]c(=O)c3ccccc23)ccc1F)N1CCN(C(=O)C2CC2)CC1 [Olaparib] (partner 8 µM)
Procedure, shortened: (§1)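 Lung cancer cell lines in 1536-well plates were dosed by pin tool the day after seeding, either with one drug alone or with a fixed anchor-drug dose plus five library-drug doses (not always all listed) in √10 steps. After 5 days, cells were fixed and their nuclei stained in one step (final 0.05% Triton X-100, 1% formaldehyde, 1 ug/ml Hoechst), then counted on 4× images. Relative viability is the nuclei count in treated wells divided by that in vehicle wells. Values are medians of duplicate plates.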

VE-821 + Trametinib = compound: CS(=O)(=O)c1ccc(-c2cnc(N)c(C(=O)Nc3ccccc3)n2)cc1 [VE-821] + CC(=O)Nc1cccc(-n2c(=O)n(C3CC3)c(=O)c3c(Nc4ccc(I)cc4F)n(C)c(=O)c(C)c32)c1 [Trametinib] (partner 0.02 µM)
Procedure, shortened: as §1

Ruxolitinib + Phenformin = compound: N#CC[C@H](C1CCCC1)n1cc(-c2ncnc3[nH]ccc23)cn1 [Ruxolitinib] + N=C(N)NC(=N)NCCc1ccccc1 [Phenformin] (partner 250 µM)
Procedure, shortened: as §1

Ruxolitinib + Navitoclax = compound: N#CC[C@H](C1CCCC1)n1cc(-c2ncnc3[nH]ccc23)cn1 [Ruxolitinib] + CC1(C)CCC(c2ccc(Cl)cc2)=C(CN2CCN(c3ccc(C(=O)NS(=O)(=O)c4ccc(N[C@H](CCN5CCOCC5)CSc5ccccc5)c(S(=O)(=O)C(F)(F)F)c4)cc3)CC2)C1 [Navitoclax] (partner 0.5 µM)
Procedure, shortened: as §1

| Cell Line | relative viability (Ruxolitinib + Olaparib; first compound 0.08 µM) | relative viability (Ruxolitinib + Olaparib; first compound 0.253 µM) | relative viability (Ruxolitinib + Olaparib; first compound 0.8 µM) | relative viability (Ruxolitinib + Olaparib; first compound 2.53 µM) | relative viability (Ruxolitinib + Olaparib; first compound 8 µM) | relative viability (VE-821 + Trametinib; first compound 0.08 µM) | relative viability (VE-821 + Trametinib; first compound 0.253 µM) | relative viability (VE-821 + Trametinib; first compound 0.8 µM) | relative viability (VE-821 + Trametinib; first compound 2.53 µM) | relative viability (VE-821 + Trametinib; first compound 8 µM) | relative viability (Ruxolitinib + Phenformin; first compound 0.253 µM) | relative viability (Ruxolitinib + Phenformin; first compound 0.8 µM) | relative viability (Ruxolitinib + Phenformin; first compound 2.53 µM) | relative viability (Ruxolitinib + Phenformin; first compound 8 µM) | relative viability (Ruxolitinib + Navitoclax; first compound 0.08 µM) | relative viability (Ruxolitinib + Navitoclax; first compound 0.253 µM) | relative viability (Ruxolitinib + Navitoclax; first compound 0.8 µM) | relative viability (Ruxolitinib + Navitoclax; first compound 2.53 µM) | relative viability (Ruxolitinib + Navitoclax; first compound 8 µM) | relative viability (Ruxolitinib + Phenformin; first compound 0.08 µM) |
| --- | --- | --- | --- | --- | --- | --- | --- | --- | --- | --- | --- | --- | --- | --- | --- | --- | --- | --- | --- | --- |
| LOU-NH91 | 0.757 | 0.895 | 0.97 | 0.853 | 0.813 | 0.813 | 0.784 | 0.776 | 0.821 | 0.752 | 0.708 | 0.765 | 0.63 | 0.747 | 0.487 | 0.688 | 0.909 | 0.585 | 0.688 |  |
| LU99A | 0.272 | 0.277 | 0.268 | 0.237 | 0.224 | 0.532 | 0.541 | 0.572 | 0.528 | 0.29 | 0.931 | 0.801 | 0.782 | 0.755 | 0.986 | 0.737 | 0.803 | 0.751 | 0.666 | 1.06 |
| NCI-H358 | 0.494 | 0.544 | 0.534 | 0.495 | 0.442 | 0.143 | 0.139 | 0.139 | 0.138 | 0.134 | 0.271 | 0.319 | 0.189 | 0.26 |  |  |  |  |  | 0.291 |
| NCI-H522 | 0.632 | 0.719 | 0.704 | 0.468 | 0.705 | 0.859 | 0.753 | 0.65 | 0.769 | 0.717 | 0.644 | 0.728 | 0.575 | 0.617 |  |  |  |  |  | 0.663 |
| NCI-H650 | 0.379 | 0.436 | 0.392 | 0.384 | 0.314 | 0.99 | 1.01 | 1.11 | 1.02 | 1.08 | 0.449 | 0.519 | 0.351 | 0.342 |  |  |  |  |  |  |
| NCI-H661 | 0.771 | 0.81 | 0.735 | 0.808 | 0.614 | 0.703 | 0.536 | 0.563 | 0.658 | 0.52 | 0.256 | 0.303 | 0.29 | 0.263 |  |  |  |  |  | 0.287 |
| NCI-H1299 | 0.939 | 0.998 | 0.963 | 0.985 | 0.757 |  |  |  |  |  |  |  |  |  | 1.03 | 1.05 | 1.02 | 1.02 | 0.85 |  |
| NCI-H1563 |  |  |  |  |  |  |  |  |  |  | 0.69 | 0.643 | 0.593 | 0.602 |  |  |  |  |  | 0.667 |
| NCI-H1623 |  |  |  |  |  |  |  |  |  |  | 0.608 | 0.574 | 0.637 | 0.343 |  |  |  |  |  | 0.525 |
| NCI-H1648 | 0.854 | 0.852 | 1.11 | 1.35 | 1.18 | 0.581 |  | 0.394 | 0.729 | 0.575 |  |  |  |  |  |  |  |  |  |  |
| NCI-H1703 | 0.44 | 0.439 | 0.55 | 0.237 | 0.315 |  |  |  |  |  |  |  |  |  | 1.18 | 1.23 | 1.23 | 0.562 | 0.611 |  |
| NCI-H2342 | 0.46 | 0.533 | 0.413 | 0.498 | 0.398 | 0.804 | 0.907 | 0.8 | 0.849 | 0.492 | 0.484 | 0.662 | 0.55 | 0.613 |  |  |  |  |  | 0.55 |
| SW 900 | 0.805 | 0.944 | 0.955 | 1.05 | 0.91 | 0.675 | 0.792 | 0.687 | 0.706 | 0.403 | 0.624 | 0.702 | 0.543 | 0.457 |  |  |  |  |  | 0.532 |
